ChEMBL document CHEMBL1147653, “Identification of type 1 inosine monophosphate dehydrogenase as an antiangiogenic drug target” (J Med Chem, 2006)
Active and inactive are the calls of the source. The rule behind the calls is not given here.

How the values were obtained:
Mus musculus [1] = species on record: Mus musculus; experiment: Inhibition of tumor-induced angiogenesis in RENCA mouse model; format: functional, organism-based
Jurkat [2] = experiment: Antiproliferative activity against Jurkat T cells in presence of 20 uM guanine as measured by [3H]thymidine incorporation; format: functional, cell-based; details: Homo sapiens
HUVEC [3] = experiment: Cell cycle arrest at G1 phase in HUVEC at 1 uM; format: functional; details: Homo sapiens
HUVEC [4] = experiment: Antiproliferative activity against HUVEC as measured by [3H]thymidine incorporation; format: functional, cell-based; details: Homo sapiens
HUVEC [5] = experiment: Cell cycle arrest at S phase in HUVEC at 1 uM in presence of 50 uM guanosine; format: functional, Homo sapiens
HUVEC [6] = experiment: Cell cycle arrest at S phase in HUVEC at 1 uM; format: functional; details: Homo sapiens
Mus musculus [7] = experiment: Antiangiogenic activity in mouse at 60 mg/kg/day, sc; format: functional; details: route subcutaneous
Jurkat [8] = experiment: Antiproliferative activity against Jurkat T cells as measured by [3H]thymidine incorporation; format: functional, cell-based; details: Homo sapiens
HUVEC [9] = experiment: Antiproliferative activity against HUVEC in presence of 20 uM guanine as measured by [3H]thymidine incorporation; format: functional, cell-based; details: Homo sapiens
HUVEC [10] = experiment: Cell cycle arrest at G2/M phase in HUVEC at 1 uM; format: functional; details: Homo sapiens
HUVEC [11] = experiment: Cell cycle arrest at G1 phase in HUVEC at 1 uM in presence of 50 uM guanosine; format: functional, Homo sapiens
HUVEC [12] = experiment: Cell cycle arrest at G2/M phase in HUVEC at 1 uM in presence of 50 uM guanosine; format: functional, Homo sapiens

COc1c(C)c2c(c(O)c1C/C=C(\C)CCC(=O)O)C(=O)OC2 [MYCOPHENOLIC ACID]
inhibition (Mus musculus [1]): Dose-dependent effect | Activity (Jurkat [2]): inactive | inhibition at 1 µM (HUVEC [3]): 81% | IC50 (HUVEC [4]): 99.2 nM | Inhibition (HUVEC [5]): 11.8% | inhibition at 1 µM (HUVEC [6]): 6.5% | inhibition in vivo at 60 mg/kg/day (Mus musculus [7]): 69% | IC50 (Jurkat [8]): 128 nM | Activity (HUVEC [9]): inactive | inhibition at 1 µM (HUVEC [10]): 12.4% | Inhibition (HUVEC [11]): 71% | Inhibition (HUVEC [12]): 17%
